In patent US6949553B2, “Aliphatic compounds, their synthesis method, and utilization of the same” (Maruha Corporation, priority 2001, dated 2005):
Several values for one entry are separate records, joined by “and”; a condition that tells them apart may be missing. Equal values may be shown once.

Legend:
[1] = test system: platelets; assay: In vitro platelet aggregation by various inducers, rabbit platelets; format: cell-based; conditions: for IC50: Oryctolagus cuniculus, Platelet, rabbit platelets, read-out: 50% inhibition point, IC50, for in vitro platelet aggregation
Description: (§1) Next, the suppression of platelet aggregation by the compounds of the present invention was studied in the same manner as described above with the use of not only collagen, but also arachidonic acid, ADP, thrombin, serotonin, epinephrine and U46619 (pseudo-thromboxane A2 substance) as inducers.
(§2) As platelets, platelets prepared from rats and guinea pigs as well as rabbits were also used.
(§3) Collagen and ADP were purchased from MCM, and used in accordance with the method of preparation described in the manuals attached to the purchased products. Serotonin, epinephrine and thrombin were purchased from Sigma, and used as solutions in physiological saline for injection (Otsuka Pharmaceutical Factory). Arachidonic acid was purchased from Cayman, and dispersed in physiological saline for injection (Otsuka Pharmaceutical Factory) with the use of an immersion type ultrasonic oscillator (US150, NIPPON SEIKI, tip end diameter ca. 3.5 mm). U46619 (pseudo-thromboxane substance) was purchased from FUNAKOSHI, and dissolved in physiological saline for injection (Otsuka Pharmaceutical Factory) when used.
(§4) Collagen (0.1 to 1 μg/ml), arachidonic acid (1 mM), ADP (1 μM), thrombin (1 U/ml), serotonin (100 μM), epinephrine (100 to 200 μM), and U46619 (3 μM) were used.
(§5) Indomethacin was used as a positive control for measuring the suppression of platelet aggregation induced by collagen.

[2] = test system: platelets; assay: In vitro platelet aggregation by various inducers, rat platelets; format: cell-based; conditions: Rattus norvegicus
Description: as §1, §2, §3, §4, §5

[3] = test system: platelets; assay: Ex vivo platelet aggregation after intravenous administration; format: in vivo, rat
Method: The blood was withdrawn at three points in time, 10 minutes, 30 minutes and 1 hour after administration. Platelets were prepared from the blood samples taken, and they were used to study the aggregation rates when platelet aggregation was induced by 0.3 to 6 μg/ml of collagen. In a control group, the aggregation rates after administration of a solvent (physiological saline) were measured.
It was studied whether the compound of the present invention would suppress ex vivo platelet aggregation dose-dependently.
The blood was withdrawn 60 minutes after administration, and platelets were prepared from the blood. Platelet aggregation was induced by 4 to 7 μg/ml of collagen using the platelets.
The blood was withdrawn 1 hour after intravenous administration, and platelets were prepared from the blood. Platelet aggregation was induced by 1 to 6 μg/ml of collagen using the platelets.

[4] = test system: platelets; assay: Ex vivo platelet aggregation after oral administration; format: in vivo, rat; conditions: 10, 1 or 0.1 mg/kg oral single dose, rats, blood 2 hours after administration, collagen 2 to 4 μg/ml
Method: Compound 2 in a dose of 10, 1 or 0.1 mg/kg was orally administered, as a single dose, to rats with the use of a probe needle. A solvent (physiological saline) was administered as a control.
The blood was withdrawn 2 hours after administration, and platelets were prepared from the blood. Platelet aggregation was induced by 2 to 4 μg/ml of collagen using the platelets. The preparation of platelets and the measurement of the aggregation rate were performed in the same manner as in Test Example 1.

[5] = test system: rat lauric acid-induced leg necrosis; assay: Rat lauric acid-induced peripheral circulatory disorder model (leg necrosis score); format: in vivo; conditions: for leg necrosis score (in words): iv once daily 14 days, 10, 30 or 100 μg/kg; for alleviation of the disorder (in words): prior administration
Method: A rat lauric acid-induced peripheral circulatory disorder model, which is widely used as a peripheral circulatory disorder model, was used to investigate the effect of the compounds of the present invention on an in vivo pathophysiological model of circulatory disorder.
Lauric acid (1.5 mg/animal) was administered into the rat femoral artery to induce leg necrosis.
A solvent (physiological saline) was administered as a control.
The progress of foot/leg lesions was observed 3, 7, 10 and 14 days after lauric acid administration, and evaluated by the following leg necrosis score. The score was given to each of the digits, and the sum of the scores of the respective digits was taken as a lesion index. If the disorder extended to the plantar portion, 5 points were further added.
Score 1: Blackening is limited to the tiptoe.
Score 2: Blackening extends to the digital portion.
Score 3: Necrosis of the digit.
Score 4: Loss of the digit.
A solvent (physiological saline) was similarly administered as a control.
The progress of foot/leg lesions was observed 3, 7, 10 and 14 days after lauric acid administration, and evaluated by the above leg necrosis score.
A test was conducted in the same manner as in (2) above.

[6] = test system: neutrophils and vascular endothelial cells; assay: Pseudo-blood vessel in vitro inflammation model (TNFα, neutrophil migration through endothelial cell layer); format: cell-based, bovine; conditions: 30, 3 or 0.3 μM, TNFα 50 ng/ml
Method: A layer of bovine endothelial cells was adhered to the bottom surface of the membrane, and cultured for 80 minutes at 37° C. in 5% CO2. Then, a suspension of fluorescence-labeled neutrophils was added to the upper chamber of the transwell. Simultaneously, TNFα was suspended in the cell suspension in the upper chamber to an end concentration of 50, 25 or 17 ng/ml.
That is, in the above model, the phenomena that neutrophils pass from the upper chamber through the vascular endothelial cell layer into the lower chamber, and neutrophils adhere to the endothelial cell layer mimic a state where in response to TNFα within the blood vessel, neutrophils migrate from within the blood vessel to the site of inflammation.
In the same manner as described above, the number of neutrophils passing from the upper chamber through the vascular endothelial cell layer into the lower chamber, and the number of neutrophils adhering to the endothelial cell layer were measured. Based on these numbers, the neutrophil migration rate (%) was calculated. The neutrophil migration rate was expressed as the relative value (%) of the number of the migrating neutrophils in the drug treatment group with respect to the number of the migrating neutrophils in the negative control group (physiological saline).

[7] = test system: rat middle cerebral artery obstruction; assay: Photosensitization-induced rat middle cerebral artery obstruction model; format: in vivo; conditions: 1 mg/kg intravenous after laser irradiation, evaluated 24 hours after
Method: A photosensitization-induced rat middle cerebral artery obstruction model, widely used as a cerebral infarction acute phase/chronic phase model, was used to investigate the effect of the compounds of the present invention on an in vivo circulatory disorder pathophysiological model.
After rats were intravenously injected with a rose bengal dye (20 mg/kg), the middle cerebral artery was irradiated with green laser light (wavelength 540 nm) for 10 minutes to induce arterial infarction due to active oxygen species. After completion of irradiation with laser light, Compound 2 was intravenously administered.
A solvent (physiological saline) was intravenously administered as a control.
The progress of cerebral infarction was observed 24 hours after laser light irradiation. A transverse section (1 mm in thickness) of the brain exenterated was prepared, and soaked in triphenyltetrazolium to stain living tissue red. An infarct was white, and was clearly distinguished from the living tissue. Thus, the area of the infarct was measured, and the infarct rate (the proportion of the area of the infarct to the transverse section of the brain) was calculated for use in evaluation.

[8] = test system: human platelets; assay: Human in vitro platelet aggregation; format: cell-based; conditions: inducer Serotonin + ADP, (0.25˜1) μM + (0.05˜0.25) μM, read-out: 50% inhibition point, IC50, against human in vitro platelet aggregation

Compound: CC/C=C\C/C=C\C/C=C\C/C=C\C/C=C\C/C=C\CCC(=O)NCCC1CCCN1C (racemic) [Compound 2, (4Z,7Z,10Z,13Z,16Z,19Z)-N-[2-(1-methylpyrrolidin-2-yl)ethyl]docosahexaenoamide]
- IC50 ([1]; inducer ADP (1 μM)): > 100 µM
- IC50 ([1]; inducer U46619 (3 μM)): 50 ± 10 µM
- IC50 ([1]; inducer arachidonic acid (1 mM)): > 100 µM
- IC50 ([1]; inducer collagen (0.1 to 1 μg/ml)): 2.1 ± 0.8 µM
- inhibition of platelet aggregation induced by arachidonic acid, ADP and thrombin (in words) ([1]; platelets from the rabbit, the rat or the guinea pig): either did not inhibit platelet aggregation, or even when it inhibited platelet aggregation, its degree of inhibition was very low
- IC50 ([2]; read-out: 50% aggregation inhibition point, collagen-induced aggregation, rat platelets): ~11 µM
- IC50 ([2]; read-out: 50% inhibition point, IC50, for in vitro platelet aggregation, inducer ADP (1 μM), rat platelets): > 100 µM
- IC50 ([2]; read-out: 50% inhibition point, IC50, for in vitro platelet aggregation, inducer collagen (0.1 to 1 μg/ml), rat platelets): 11 ± 7 µM
- ex vivo IC50 blood concentration as fraction of in vitro IC50 ([3]; 26 nM versus 2.1±0.8 μM in vitro): about 1/80
- ex vivo platelet aggregation (in words) ([3]; 0.0001 mg/kg rat caudal vein, 60 minutes, collagen 4 μg/ml): suppressed compared with the solvent-treated group, although the suppressive action was weak
- ex vivo platelet aggregation, onset of efficacy (in words) ([3]; 10 mg/kg caudal vein, male SD rats, blood 10 minutes, 30 minutes and 1 hour after administration, collagen 0.3 to 6 μg/ml): platelet aggregation was suppressed in comparison with the solvent group
- ex vivo platelet aggregation (in words) ([3]; 1, 0.1, 0.01 or 0.001 mg/kg rat caudal vein, blood 60 minutes after administration, collagen 4 to 7 μg/ml): platelet aggregation was suppressed in comparison with the solvent-treated group
- ex vivo platelet aggregation, dose-dependency (in words) ([3]; FIG. 3, 0.0001 to 1 mg/kg rat caudal vein, 60 minutes): suppressing platelet aggregation ex vivo dose-dependently
- estimated blood concentration at the ex vivo IC50 dose ([3]; Platelet, iv, 630 ng/kg, rat blood estimated at about 60 ml/kg, read-out: presumed blood concentration at the ex vivo IC50 dose): 0.026 µM
- IC50 for suppression of ex vivo platelet aggregation relative to conventional GPIIb/IIIa receptor antagonists ([3]; rat, intravenous): about 1,000 times
- 50% suppression point, IC50, ex vivo platelet aggregation ([3]; rat, intravenous, 60 minutes after administration, collagen 4 μg/ml): 630 ± 36 ng/kg and 630 ng/kg
- ex vivo platelet aggregation after oral administration (in words) [4]: potently suppressed
- leg necrosis score (in words) ([5]; administration after induction: first dose 6 hours after lauric acid): improve the leg necrosis score dose-dependently
- leg necrosis score (in words) ([5]; administration started 1 hour before lauric acid): improve the leg necrosis score dose-dependently
- alleviation of the disorder (in words) ([5]; dose of 10 μg/kg): tended to alleviate the disorder
- alleviation of the disorder (in words) ([5]; doses of 30 and 100 μg/kg): alleviated the disorder significantly
- neutrophil passage through vascular endothelial cell layer (in words) [6]: suppressed neutrophil passage dose-dependently
- cerebral infarction, infarct rate (in words) [7]: ameliorate cerebral infarction
- IC50 [8]: 3 µM
